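GI50: concentration for 50% inhibition of growth. TGI: concentration producing complete growth inhibition.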
What was measured:
Assay in all cases: growth of human tumour cells (NCI), 384-well format
[1] = test system: SK-OV-3 ovarian
[2] = test system: SNB-75 CNS
[3] = test system: HCC-2998 colon
[4] = test system: IGROV1 ovarian
[5] = test system: CCRF-CEM leukemia
[6] = test system: NCI-H226 lung
[7] = test system: SN12C renal
[8] = test system: NCI-H460 NSCLC
[9] = test system: DU-145 prostate
[10] = test system: SK-MEL-28 melanoma
[11] = test system: UACC-257 melanoma
[12] = test system: SNB-19 CNS
[13] = test system: NCI-H522 lung
[14] = test system: MCF7 breast
[15] = test system: RXF 393 renal
[16] = test system: K-562 leukemia
[17] = test system: OVCAR-8 ovarian
[18] = test system: BT-549 breast
[19] = test system: SF-295 CNS
[20] = test system: EKVX NSCLC
[21] = test system: NCI/ADR-RES ovarian
[22] = test system: ACHN renal
[23] = test system: COLO 205 colon
[24] = test system: UO-31 renal
[25] = test system: HCT-15 colon
[26] = test system: T-47D breast
[27] = test system: MDA-MB-231 breast
[28] = test system: HL-60(TB) leukemia
[29] = test system: 786-0 renal
[30] = test system: MOLT-4 leukemia
[31] = test system: LOX IMVI melanoma
[32] = test system: OVCAR-4 ovarian
[33] = test system: HT29 colon
[34] = test system: SK-MEL-5 melanoma
[35] = test system: HOP-62 NSCLC
[36] = test system: MALME-3M melanoma
[37] = test system: MDA-MB-435 melanoma
[38] = test system: SW-620 colon
[39] = test system: KM12 colon
[40] = test system: U251 glioblastoma
[41] = test system: A498 renal
[42] = test system: MDA-MB-468 breast
[43] = test system: NCI-H322M lung
[44] = test system: UACC-62 melanoma
[45] = test system: NCI-H23 lung
[46] = test system: HOP-92 NSCLC
[47] = test system: HCT-116 colon
[48] = test system: TK-10 renal
[49] = test system: CAKI-1 renal
[50] = test system: PC-3 prostate
[51] = test system: OVCAR-5 ovarian
[52] = test system: OVCAR-3 ovarian
[53] = test system: SF-539 CNS
[54] = test system: RPMI-8226 leukemia
[55] = test system: M14 melanoma
[56] = test system: SF-268 CNS
[57] = test system: A549 NSCLC
[58] = test system: HS 578T breast

`Cc1csc(-c2nnc(Nc3ccc(Oc4ncccc4-c4ccnc(N)n4)cc3)c3ccccc23)c1` showed a GI50 [1] of 3820 nM, a TGI [1] greater than 100000 nM and a GI50 [2] of 5920 nM. It also gave a TGI [2] greater than 100000 nM, a GI50 [3] of 1440 nM and a TGI [3] of 3530 nM. The GI50 [4] was 1540 nM, the TGI [4] was greater than 100000 nM and the GI50 [5] was less than 10 nM. It also gave a TGI [5] of less than 10 nM, a GI50 [6] of 3250 nM and a TGI [6] greater than 100000 nM. The GI50 [7] was 1130 nM, the TGI [7] was greater than 100000 nM and the GI50 [8] was less than 10 nM. The TGI [8] was 1290 nM, the GI50 [9] was 2100 nM and the TGI [9] was greater than 100000 nM. It also gave a GI50 [10] of 1510 nM, a TGI [10] of 9780 nM and a GI50 [11] of 1480 nM. The TGI [11] was 43200 nM, the GI50 [12] was 19600 nM and the TGI [12] was greater than 100000 nM. The GI50 [13] was 12.1 nM, the TGI [13] was 4590 nM and the GI50 [14] was 547 nM. It also gave a TGI [14] of 13100 nM, a GI50 [15] of less than 10 nM and a TGI [15] of 5030 nM. The GI50 [16] was 552 nM, the TGI [16] was greater than 100000 nM and the GI50 [17] was 1340 nM. The TGI [17] was greater than 100000 nM, the GI50 [18] was 191 nM and the TGI [18] was greater than 100000 nM. For the same compound, the GI50 [19] was 51.7 nM, the TGI [19] was greater than 100000 nM and the GI50 [20] was 918 nM. The TGI [20] was greater than 100000 nM, the GI50 [21] was 166 nM and the TGI [21] was greater than 100000 nM. For the same compound, the GI50 [22] was 878 nM, the TGI [22] was greater than 100000 nM and the GI50 [23] was less than 10 nM. For the same compound, the TGI [23] was less than 10 nM, the GI50 [24] was 2420 nM and the TGI [24] was greater than 100000 nM. For the same compound, the GI50 [25] was 586 nM, the TGI [25] was greater than 100000 nM and the GI50 [26] was 1440 nM. For the same compound, the TGI [26] was 4880 nM, the GI50 [27] was 2340 nM and the TGI [27] was greater than 100000 nM. The GI50 [28] was less than 10 nM, the TGI [28] was 1110 nM and the GI50 [29] was 2710 nM. For the same compound, the TGI [29] was greater than 100000 nM, the GI50 [30] was less than 10 nM and the TGI [30] was less than 10 nM. It also gave a GI50 [31] of 187 nM, a TGI [31] greater than 100000 nM and a GI50 [32] of 5320 nM. It also gave a TGI [32] greater than 100000 nM, a GI50 [33] of 271 nM and a TGI [33] of 2950 nM. For the same compound, the GI50 [34] was 976 nM, the TGI [34] was greater than 100000 nM and the GI50 [35] was 89.4 nM. The TGI [35] was greater than 100000 nM, the GI50 [36] was 1510 nM and the TGI [36] was 6120 nM. It also gave a GI50 [37] of 1810 nM, a TGI [37] greater than 100000 nM and a GI50 [38] of 181 nM. For the same compound, the TGI [38] was 3130 nM, the GI50 [39] was 1690 nM and the TGI [39] was greater than 100000 nM. The GI50 [40] was 2910 nM, the TGI [40] was greater than 100000 nM and the GI50 [41] was 253 nM. For the same compound, the TGI [41] was greater than 100000 nM, the GI50 [42] was less than 10 nM and the TGI [42] was less than 10 nM. The GI50 [43] was 4920 nM, the TGI [43] was greater than 100000 nM and the GI50 [44] was 202 nM. The TGI [44] was 5220 nM, the GI50 [45] was 1200 nM and the TGI [45] was 16300 nM. For the same compound, the GI50 [46] was 1960 nM, the TGI [46] was 43300 nM and the GI50 [47] was 33.1 nM. The TGI [47] was greater than 100000 nM, the GI50 [48] was 1890 nM and the TGI [48] was greater than 100000 nM. The GI50 [49] was 682 nM, the TGI [49] was greater than 100000 nM and the GI50 [50] was 4050 nM. For the same compound, the TGI [50] was greater than 100000 nM, the GI50 [51] was 7210 nM and the TGI [51] was greater than 100000 nM. The GI50 [52] was 53.6 nM, the TGI [52] was greater than 100000 nM and the GI50 [53] was 141 nM. The TGI [53] was greater than 100000 nM, the GI50 [54] was 10.1 nM and the TGI [54] was 2470 nM. The GI50 [55] was 99.5 nM, the TGI [55] was 3080 nM and the GI50 [56] was less than 10 nM. For the same compound, the TGI [56] was 56.4 nM, the GI50 [57] was less than 10 nM and the TGI [57] was greater than 100000 nM. For the same compound, the GI50 [58] was less than 10 nM and the TGI [58] was 17600 nM.
